Assay results taken from ChEMBL document CHEMBL5550205, “Discovery of a NCOA4 Degrader for Labile Iron-Dependent Ferroptosis Inhibition” (J Med Chem, 2024).
Calls of active or inactive are those of the source. No cut-off for these calls is given here. Residues, ends and D or L forms follow the SMILES beside them. *: point of attachment. Cbz = O=C(OCc1ccccc1)*

What was measured:
[1] = target: von Hippel-Lindau disease tumor suppressor/Nuclear receptor coactivator 4 (Homo sapiens, UniProt P40337+Q13772); assay: PROTAC activity at NCOA4/VHL in human HeLa cells assessed as induction of NCOA4 degradation at 4 uM measured for 24 hrs by immunoprecipitation analysis; type: cell-based
AML12 = assay: Protection against CCl4-induced ferroptosis in mouse AML12 cells assessed as cell viability; type: functional, cell-based

Sequence of von Hippel-Lindau disease tumor suppressor/Nuclear receptor coactivator 4 (P40337 whole entry, looked up): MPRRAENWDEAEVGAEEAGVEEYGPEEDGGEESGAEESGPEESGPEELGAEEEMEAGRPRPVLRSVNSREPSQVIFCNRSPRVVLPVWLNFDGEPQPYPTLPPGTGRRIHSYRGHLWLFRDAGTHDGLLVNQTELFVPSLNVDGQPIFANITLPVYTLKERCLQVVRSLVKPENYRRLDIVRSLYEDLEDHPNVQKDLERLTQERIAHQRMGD
Sequence of von Hippel-Lindau disease tumor suppressor/Nuclear receptor coactivator 4 (Q13772 whole entry, looked up): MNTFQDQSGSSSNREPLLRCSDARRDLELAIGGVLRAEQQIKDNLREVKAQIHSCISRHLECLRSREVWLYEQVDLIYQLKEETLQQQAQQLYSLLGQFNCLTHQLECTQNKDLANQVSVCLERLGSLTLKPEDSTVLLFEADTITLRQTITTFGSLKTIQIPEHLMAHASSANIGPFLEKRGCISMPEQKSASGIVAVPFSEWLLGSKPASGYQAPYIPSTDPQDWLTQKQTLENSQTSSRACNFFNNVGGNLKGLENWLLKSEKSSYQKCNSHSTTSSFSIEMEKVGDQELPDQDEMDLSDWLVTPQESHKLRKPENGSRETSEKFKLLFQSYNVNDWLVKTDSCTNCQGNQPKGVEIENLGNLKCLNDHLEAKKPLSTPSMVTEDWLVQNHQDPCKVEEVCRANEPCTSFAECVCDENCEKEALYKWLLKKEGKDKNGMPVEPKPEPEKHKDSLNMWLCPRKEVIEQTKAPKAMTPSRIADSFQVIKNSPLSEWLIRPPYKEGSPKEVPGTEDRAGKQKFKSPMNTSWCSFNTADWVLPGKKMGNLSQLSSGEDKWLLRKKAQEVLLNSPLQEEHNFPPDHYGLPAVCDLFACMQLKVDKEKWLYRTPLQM

Row | Structure (SMILES) | Activity [1] | EC50 (AML12) [nM]
1 | CC(C)C[C@@H](C=O)NC(=O)[C@H](CC(C)C)NC(=O)[C@H](CC(C)C)NC(=O)OCc1ccccc1 (Cbz-Leu-Leu-Leu-aldehyde) | Active | –
2 | CCOC(=O)c1ccc(NC2CCCCC2)c(N)c1 | – | 104
